Data as given in patent publication US20070066516A1, “Compounds comprising cyclized somatostatin receptor binding peptides” (priority 2005, published 2007).
Where a SMILES comes first, the peptide text is derived from it. Side-chain parts run from the residue outwards. [ ]: non-standard residue; d: D form. The star is where a group is joined. X1 = CC(C(=O)*)N1CCN(CC(=O)O)CCN(CC(=O)O)CCN(CC(=O)O)CC1; Tpi = O=C(O)[C@@H]1Cc2c([nH]c3ccccc23)CN1; Dip = N[C@H](C(=O)O)C(c1ccccc1)c1ccccc1; Phe(4-F) = N[C@@H](Cc1ccc(F)cc1)C(=O)O; 1Nal = N[C@@H](Cc1cccc2ccccc12)C(=O)O; 2Nal = N[C@@H](Cc1ccc2ccccc2c1)C(=O)O; Ala(cPr) = N[C@@H](CC1CC1)C(=O)O; NMeF = CN[C@@H](Cc1ccccc1)C(=O)O; 4Pal = N[C@@H](Cc1ccncc1)C(=O)O; Thz = O=C(O)[C@@H]1CSCN1; Dap = NC[C@H](N)C(=O)O

B1: P2265 (peptide)
peptide: cyclo(Y[dW]KTM[NMeF])
SMILES: CSCC[C@@H]1NC(=O)[C@H]([C@@H](C)O)NC(=O)[C@H](CCCCN)NC(=O)[C@@H](Cc2c[nH]c3ccccc23)NC(=O)[C@H](Cc2ccc(O)cc2)NC(=O)[C@H](Cc2ccccc2)N(C)C1=O
notes: Cyclic hexapeptide; also called cyclo[Tyr-DTrp-Lys-Thr-Met-(NMe)Phe]
B2: P2292 (peptide)
peptide: cyclo([Phe(4-F)][dW]KTM[NMeF])
SMILES: CSCC[C@@H]1NC(=O)[C@H]([C@@H](C)O)NC(=O)[C@H](CCCCN)NC(=O)[C@@H](Cc2c[nH]c3ccccc23)NC(=O)[C@H](Cc2ccc(F)cc2)NC(=O)[C@H](Cc2ccccc2)N(C)C1=O
notes: Cyclic hexapeptide; also called cyclo[Phe(4-F)-DTrp-Lys-Thr-Met-(N-Me)Phe]
B3: P2297 (peptide)
peptide: cyclo([Thz][dW]KTMF)
SMILES: CSCC[C@@H]1NC(=O)[C@H]([C@@H](C)O)NC(=O)[C@H](CCCCN)NC(=O)[C@@H](Cc2c[nH]c3ccccc23)NC(=O)[C@@H]2CSCN2C(=O)[C@H](Cc2ccccc2)NC1=O
notes: Cyclic hexapeptide; also called cyclo[ThioPro-DTrp-Lys-Thr-Met-Phe]
B4: P2326 (peptide)
peptide: cyclo([Dip][dW]KTM[NMeF])
SMILES: CSCC[C@@H]1NC(=O)[C@H]([C@@H](C)O)NC(=O)[C@H](CCCCN)NC(=O)[C@@H](Cc2c[nH]c3ccccc23)NC(=O)[C@H](C(c2ccccc2)c2ccccc2)NC(=O)[C@H](Cc2ccccc2)N(C)C1=O
notes: Cyclic hexapeptide; also called cyclo[DiphenylAla-DTrp-Lys-Thr-Met-(N-Me)Phe]
B5: P2266 (peptide)
peptide: cyclo(Y[dW]KVM[NMeF])
SMILES: CSCC[C@@H]1NC(=O)[C@H](C(C)C)NC(=O)[C@H](CCCCN)NC(=O)[C@@H](Cc2c[nH]c3ccccc23)NC(=O)[C@H](Cc2ccc(O)cc2)NC(=O)[C@H](Cc2ccccc2)N(C)C1=O
notes: Cyclic hexapeptide; also called cyclo[Tyr-DTrp-Lys-Val-Met-(NMe)Phe]
B6: P2279 (peptide)
peptide: cyclo([2Nal][dW]KTM[NMeF])
SMILES: CSCC[C@@H]1NC(=O)[C@H]([C@@H](C)O)NC(=O)[C@H](CCCCN)NC(=O)[C@@H](Cc2c[nH]c3ccccc23)NC(=O)[C@H](Cc2ccc3ccccc3c2)NC(=O)[C@H](Cc2ccccc2)N(C)C1=O
notes: Cyclic hexapeptide; also called cyclo[2Nal-Dtrp-Lys-Thr-Met-(N-Me)Phe]
B7: P2281 (peptide)
peptide: cyclo([4Pal][dW]KTM[NMeF])
SMILES: CSCC[C@@H]1NC(=O)[C@H]([C@@H](C)O)NC(=O)[C@H](CCCCN)NC(=O)[C@@H](Cc2c[nH]c3ccccc23)NC(=O)[C@H](Cc2ccncc2)NC(=O)[C@H](Cc2ccccc2)N(C)C1=O
notes: Cyclic hexapeptide; also called cyclo[(4)Pal-DTrp-Lys-Thr-Met-(NMe)Phe]
B8: P2278 (peptide)
peptide: cyclo([1Nal][dW]KTM[NMeF])
modifications: also: tested peptides comprised a lanthanide chelation unit, not shown
notes: also called cyclo[(1)Nal-DTrp-Lys-Thr-Met-(NMe)Phe]
B9: P2329 (peptide)
peptide: cyclo([1Nal][dW]KVM[NMeF])
SMILES: CSCC[C@@H]1NC(=O)[C@H](C(C)C)NC(=O)[C@H](CCCCN)NC(=O)[C@@H](Cc2c[nH]c3ccccc23)NC(=O)[C@H](Cc2cccc3ccccc23)NC(=O)[C@H](Cc2ccccc2)N(C)C1=O
notes: Cyclic hexapeptide; also called cyclo[1Nal-DTrp-Lys-Val-Met-(N-Me)Phe]

Columns and labels:
SSTR5 = SSTR5 (Homo sapiens, UniProt P35346); test: Radioligand binding assay on membranes of CHO-K1 cells expressing SSTR5; conditions: for Ratio 2/5 in %: ratio of IC50 SSTR2 / IC50 SSTR5 in %; for IC50: membranes from CHO-K1 cells stably expressing cloned somatostatin receptor 5
Experimental: (§1) Radiolabeling binding assays were carried out as described in the prior art like, e.g. in Gazal S. et al (2002) J. Med. Chem. 45: 1665-1671. The radioligand binding assays were carried out on membranes prepared from CHO-K1 cells stably expressing individually cloned somatostatin receptors 2 or 5 (SSTR2 or SSTR5). Cells were grown for 2 days for almost confluence and were washed and scraped into 50 mM ice-cold Tris-HCl, pH 7.8, containing 1 mM EGTA, 5 mM MgCl2, […], 0.1 mM PMSF, and 0.5 mg/mL aprotinin (buffer A) and were centrifuged at 10,000 rpm for 10 min at 4° C. (in Sorvall RC 26 Plus ultracentrifuge, rotor SS-34). The pellet was resuspended in buffer A and homogenized with a Polytron PT 1200 homogenizer (Kinematica AG, Switzerland) (setting 2, 3 strokes 10 s each). The homogenate was then centrifuged at 20 000 rpm for 20 min at 4° C. The pellet was resuspended in buffer A and homogenized using the Polytron homogenizer (setting 2, 3 strokes 5 s each). The protein content was determined by Bradford, and the membrane preparation was diluted in buffer A containing 1 mg/mL bovine serum albumin (BSA) to a final 0.2 or 0.4 mg/mL membrane protein (depending on the specific somatostatin receptor used).
(§2) The radioligand binding assay was performed in 96 well microtiter plates (Maxisorp plates, Nunc, Denmark). Cell membranes ([…] protein) were incubated with the various cyclized peptides indicated in Table 1 & 2, which comprised a lanthanide chelation unit, in a final volume of 250 μL, for 45 min. at room temperature in the presence or absence of competing peptides. Nonspecific binding was defined as the radioactivity remaining bound in the presence of […] somatostatin. At the end of the binding, reaction free radioligand was separated from bound Ligand by rapid filtration through UniFilter GF/C plates preincubated in a solution of 5 g/L polyethyleneimine and 1 g/L BSA. The filtration was performed in Filter-Mate Cell Harvester (Packard Instrument Company, U.S.A.). After filtration, the filters were washed several times with cold buffer A containing 1 mg/mL BSA and allowed to dry overnight at room temperature. Then, bound radioactivity was counted. The binding assays were performed in triplicate wells. Data from radioligand binding were used to generate inhibition curves, and IC50 values were determined for each of the tested peptides. The saturation binding data were analyzed by the method of Scatchard, and IC50 values are expressed as mean±SEM (standard error of the mean).

SSTR2 = SSTR2 (Homo sapiens, UniProt P30874); test: Radioligand binding assay on membranes of CHO-K1 cells expressing SSTR2; conditions: membranes from CHO-K1 cells stably expressing cloned somatostatin receptor 2
Experimental: as §1, §2

somatostatin receptor 5 = molecular target: T1, somatostatin receptor 5 (UniProt P35346 1-364, limits assumed); test: ratio of IC50 on SSTR2 to IC50 on SSTR5 (reference SSTR2), radioligand competition binding on CHO-K1 membranes
T1 construct: whole, on cells; Assayed as membrane preparation of CHO-K1 cells stably expressing the cloned receptor; also called SSTR5; somatostatin receptor subtype 5
T1 sequence (P35346 whole entry): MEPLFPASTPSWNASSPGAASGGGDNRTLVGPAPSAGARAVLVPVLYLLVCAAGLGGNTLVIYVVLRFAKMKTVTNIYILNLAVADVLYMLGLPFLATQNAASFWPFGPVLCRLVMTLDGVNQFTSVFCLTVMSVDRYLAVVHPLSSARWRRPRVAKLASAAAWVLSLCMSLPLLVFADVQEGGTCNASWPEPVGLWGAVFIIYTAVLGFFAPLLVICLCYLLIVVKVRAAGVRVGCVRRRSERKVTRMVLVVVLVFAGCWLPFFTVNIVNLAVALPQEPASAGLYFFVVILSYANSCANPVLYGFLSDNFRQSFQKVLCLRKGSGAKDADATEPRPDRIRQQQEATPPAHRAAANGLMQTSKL

SSTR5, sequence (P35346 whole entry): as above
SSTR2, sequence (P30874 whole entry): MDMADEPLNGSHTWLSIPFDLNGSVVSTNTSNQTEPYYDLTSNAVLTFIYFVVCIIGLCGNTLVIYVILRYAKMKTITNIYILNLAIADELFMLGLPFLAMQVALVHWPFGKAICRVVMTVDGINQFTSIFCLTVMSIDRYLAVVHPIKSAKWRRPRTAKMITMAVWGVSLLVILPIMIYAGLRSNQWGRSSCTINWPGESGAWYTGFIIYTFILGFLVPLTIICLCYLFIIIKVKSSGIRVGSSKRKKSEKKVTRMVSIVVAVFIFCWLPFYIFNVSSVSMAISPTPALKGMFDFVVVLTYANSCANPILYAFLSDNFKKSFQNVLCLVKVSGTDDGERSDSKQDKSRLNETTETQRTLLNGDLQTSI

Row | Molecule | Ratio 2/5 in % (SSTR5) [%] | IC50 (SSTR2) [nM] | IC50 (SSTR5) [nM] | Ratio 2/5 in % (somatostatin receptor 5) [%]
1 | CC(C(=O)NCC(=O)NCCCC[C@@H]1NC(=O)[C@H]([C@@H](C)O)NC(=O)[C@H](CCCCN)NC(=O)[C@@H](Cc2c[nH]c3ccccc23)NC(=O)[C@H](Cc2cccc3ccccc23)NC(=O)[C@H](Cc2ccccc2)N(C)C1=O)N1CCN(CC(=O)O)CCN(CC(=O)O)CCN(CC(=O)O)CC1 (stereo partly drawn) [P2323, cyclo[1Nal-DTrp-Lys-Thr-Lys(GlyMeDOTA)-(N-Me)Phe]] (cyclo([1Nal][dW]KTK([Gly-X1])[NMeF])) | 399.1 |  |  | 
2 | CSCC[C@@H]1NC(=O)[C@H]([C@@H](C)O)NC(=O)[C@H](CCCCN)NC(=O)[C@@H](Cc2c[nH]c3ccccc23)NC(=O)[C@H](Cc2ccncc2)NC(=O)[C@H](Cc2ccccc2)N(C)C1=O [P2281, cyclo[(4)Pal-DTrp-Lys-Thr-Met-(NMe)Phe]] (cyclo([4Pal][dW]KTM[NMeF])) | 0.36 | 0.154 | 43.3 | 
3 | CSCC[C@@H]1NC(=O)[C@H](CN)NC(=O)[C@H](CCCCN)NC(=O)[C@@H](Cc2c[nH]c3ccccc23)NC(=O)[C@H](Cc2ccc(O)cc2)NC(=O)[C@H](Cc2ccccc2)N(C)C1=O [P2267, cyclo[Tyr-DTrp-Lys-Dpr-Met-(NMe)Phe]] (cyclo(Y[dW]K[Dap]M[NMeF])) | 1.9 |  |  | 
4 | CSCC[C@@H]1NC(=O)[C@H]([C@@H](C)O)NC(=O)[C@H](CCCCN)NC(=O)[C@@H](Cc2c[nH]c3ccccc23)NC(=O)[C@H](Cc2ccc(F)cc2)NC(=O)[C@H](Cc2ccccc2)N(C)C1=O [P2292, cyclo[Phe(4-F)-DTrp-Lys-Thr-Met-(N-Me)Phe]] (cyclo([Phe(4-F)][dW]KTM[NMeF])) | 2.0 | 0.152 | 7.61 | 
5 | CSCC[C@@H]1NC(=O)[C@H](CC2CC2)NC(=O)[C@H](CCCCN)NC(=O)[C@@H](Cc2c[nH]c3ccccc23)NC(=O)[C@H](Cc2ccc(O)cc2)NC(=O)[C@H](Cc2ccccc2)N(C)C1=O [P2300, cyclo[Tyr-DTrp-Lys-BAla(cyclopropyl)-Met-(N-Me)Phe]] (cyclo([Ala(cPr)]M[NMeF]Y[dW]K)) | 0.96 |  |  | 
6 | CSCC[C@@H]1NC(=O)[C@H]([C@@H](C)O)NC(=O)[C@H](CCCCN)NC(=O)[C@@H](Cc2c[nH]c3ccccc23)NC(=O)[C@H](Cc2ccc(O)cc2)NC(=O)[C@H](Cc2ccccc2)N(C)C1=O [P2265, cyclo[Tyr-DTrp-Lys-Thr-Met-(NMe)Phe]] (cyclo(Y[dW]KTM[NMeF])) | 1.2 | 0.139 | 11.6 | 
7 | CSCC[C@@H]1NC(=O)[C@H]([C@@H](C)O)NC(=O)[C@H](CCCCN)NC(=O)[C@@H](Cc2c[nH]c3ccccc23)NC(=O)[C@H](Cc2ccc3ccccc3c2)NC(=O)[C@H](Cc2ccccc2)N(C)C1=O [P2279, cyclo[2Nal-Dtrp-Lys-Thr-Met-(N-Me)Phe]] (cyclo([2Nal][dW]KTM[NMeF])) | 37.2 | 5.58 | 15 | 
8 | C[C@@H](O)[C@@H]1NC(=O)[C@H](CCCCN)NC(=O)[C@@H](Cc2c[nH]c3ccccc23)NC(=O)[C@H](Cc2ccc(O)cc2)NC(=O)[C@H](CCS)N(C)C(=O)[C@H](Cc2ccccc2)NC1=O [P1839, cyclo[Tyr-DTrp-Lys-Thr-Phe-(NMe)hCys], reference compound] | 0.15 | 0.032 | 22 | 
9 | CSCC[C@@H]1NC(=O)[C@H]([C@@H](C)O)NC(=O)[C@H](CCCCN)NC(=O)[C@@H](Cc2c[nH]c3ccccc23)NC(=O)[C@H](Cc2ccc(O)cc2)NC(=O)[C@@H]2Cc3c([nH]c4ccccc34)CN2C1=O [P2274, cyclo[Tyr-DTrp-Lys-Thr-Met-Tpi]] (cyclo(Y[dW]KTM[Tpi])) | 6.1 |  |  | 
10 | CSCC[C@@H]1NC(=O)[C@H](C(C)C)NC(=O)[C@H](CCCCN)NC(=O)[C@@H](Cc2c[nH]c3ccccc23)NC(=O)[C@H](Cc2ccc(O)cc2)NC(=O)[C@H](Cc2ccccc2)N(C)C1=O [P2266, cyclo[Tyr-DTrp-Lys-Val-Met-(NMe)Phe]] (cyclo(Y[dW]KVM[NMeF])) | 3.2 | 0.256 | 8.12 | 
11 | CSCC[C@@H]1NC(=O)[C@H](C(C)C)NC(=O)[C@H](CCCCN)NC(=O)[C@@H](Cc2c[nH]c3ccccc23)NC(=O)[C@H](Cc2cccc3ccccc23)NC(=O)[C@H](Cc2ccccc2)N(C)C1=O [P2329, cyclo[1Nal-DTrp-Lys-Val-Met-(N-Me)Phe]] (cyclo([1Nal][dW]KVM[NMeF])) | 10.5 | 0.437 | 4.17 | 
12 | CSCC[C@@H]1NC(=O)[C@H]([C@@H](C)O)NC(=O)[C@H](CCCCN)NC(=O)[C@@H](Cc2c[nH]c3ccccc23)NC(=O)[C@H](C(c2ccccc2)c2ccccc2)NC(=O)[C@H](Cc2ccccc2)N(C)C1=O [P2326, cyclo[DiphenylAla-DTrp-Lys-Thr-Met-(N-Me)Phe]] (cyclo([Dip][dW]KTM[NMeF])) | 0.42 | 0.177 | 42.2 | 
13 | B1 |  |  |  | 1.2
14 | B2 |  |  |  | 2
15 | B3 |  |  |  | 37.1
16 | B4 |  |  |  | 0.42
17 | B5 |  |  |  | 3.2
18 | B6 |  |  |  | 37.2
19 | B7 |  |  |  | 0.36
20 | B8 |  |  |  | 27.9
21 | B9 |  |  |  | 10.5
